Data on 25 molecules can be found in the RepoRT retention time repository (doi:10.1093/pcp/pcn183).

Molecules are shown by their SMILES. Counter-ions that a name gives are not always drawn.

A short description of the data set: RP, Waters ACQUITY UPLC BEH C18, 38 °C, 0.24 mL/min; A: water + 0.1% formic acid, pH 3; B: acetonitrile + 0.1% formic acid, pH 3; gradient (min/%B) 0/0 0.25/0 0.4/9 0.8/17 1.9/100 2.1/100 2.11/0 3/0. The note with it: stereoisomer not certain.
For `OCC1OC(Oc2cc3c(OC4OC(CO)C(O)C(O)C4O)cc(O)cc3[o+]c2-c2ccc(O)c(O)c2)C(O)C(O)C1O` (stereo not given) [cyanidin-3,5-di-O-glucoside chloride], the LC retention time turned out to be 1.11 min.

For `NCC(=O)CCC(=O)O` [delta-Aminolevulinic acid hydrochloride], the LC retention time turned out to be 0.18 min. As to `O=C1CC(c2ccc(O)c(O)c2)Oc2cc(OC3OC(CO)C(O)C(O)C3O)cc(O)c21` (stereo not given) [eriodictyol-7-O-glucoside], the LC retention time worked out at 1.41 min. In the case of `NCCCC(=O)O` [gamma-Amino-n-butyric acid] it was 0.17 min; in that of `NC(CCC(=O)NC(CS)C(=O)O)C(=O)O` (stereo not given) [gamma-Glu-Cys], 0.55 min; in that of `COc1cc(-c2oc3cc(O)cc(O)c3c(=O)c2OC2OC(CO)C(O)C(O)C2O)ccc1O` (stereo not given) [isorhamnetin-3-O-glucoside], 1.45 min. Turning to `CC1OC(OCC2OC(Oc3c(-c4ccc(O)cc4)oc4cc(O)cc(O)c4c3=O)C(O)C(O)C2O)C(O)C(O)C1O` (stereo not given) [kaempferol-3-O-rutinoside], the LC retention time is 1.42 min. As to `CC1OC(OC2C(Oc3cc(O)c4c(=O)c(O)c(-c5ccc(O)cc5)oc4c3)OC(CO)C(O)C2O)C(O)C(O)C1O` (stereo not given) [kaempferol-7-O-neohesperidoside], the LC retention time came out at 1.44 min. In the case of `O=c1cc(-c2ccc(O)c(OC3OC(CO)C(O)C(O)C3O)c2)oc2cc(OC3OC(CO)C(O)C(O)C3O)cc(O)c12` (stereo not given) [luteolin-3',7-di-O-glucoside] it was 1.35 min; in that of `O=c1cc(-c2ccc(O)c(O)c2)oc2cc(OC3OC(CO)C(O)C(O)C3O)cc(O)c12` (stereo not given) [luteolin-7-O-glucoside], 1.41 min; in that of `O=C(O)C(O)C(O)C(O)C(O)C(=O)O` (stereo not given) [mucic acid], 2.13 min.

In the case of `CCCCCCC(=O)O` [n-heptanoic acid], the LC retention time came out at 0.29 min. In the case of `O=C1CC(c2ccc(O)cc2)Oc2cc(O)cc(O)c21` (stereo not given) [naringenin] it was 1.67 min; in that of `COc1ccccc1C(=O)O` [o-Anisic Acid], 1.47 min. `Cc1ncc(CO)c(C=O)c1O` [pyridoxal hydrochrolide]: the LC retention time is 0.38 min. With `Cc1ncc(COP(=O)(O)O)c(C=O)c1O` [pyridoxal-5'-phosphate hydrate], the LC retention time was 0.39 min.

Consider `C=CCC(=NOS(=O)(=O)O)SC1OC(CO)C(O)C(O)C1O` (stereo not given) [sinigrin], for which the LC retention time was determined as 0.38 min. In the case of `C[N+](C)(C)CCOP(=O)([O-])OCC(O)CO` (stereo not given) [sn-Glycero-3-phosphocholine 1:1 cadmium chloride adduct], the LC retention time is 0.17 min.

Take `COc1cc(-c2oc3cc(O)cc(O)c3c(=O)c2OC2OC(CO)C(O)C(O)C2O)cc(OC)c1O` (stereo not given) [syringetin-3-O-glucoside]: the LC retention time turned out to be 1.45 min. On to `COc1cc(/C=C/C(=O)O)ccc1O` [trans-4-Hydroxy-3-methoxycinnamic acid], for which the LC retention time is 1.44 min. For `O=C(O)[C@@H]1C[C@@H](O)CN1` [trans-4-Hydroxy-L-proline], the LC retention time was found to be 0.17 min. Take `O=C(O)C=C(CC(=O)O)C(=O)O` [trans-Aconitic acid]: the LC retention time came out at 0.63 min.

Take `O=C(O)/C=C/c1ccccc1` [trans-Cinnamic acid]: the LC retention time turned out to be 1.64 min.

Take `CC(=CCNc1ncnc2c1ncn2C1OC(CO)C(O)C1O)CO` (stereo not drawn) [trans-Zeatin-riboside]: the LC retention time came to 1.16 min. For the molecule `O=C(O)C=Cc1cnc[nH]1` [urocanic acid], the LC retention time came out at 0.38 min.
